Here are results for 2 compounds from publication PMC9571093, “Synthesis and Characterization of Novel Hydrazone Derivatives of Isonicotinic Hydrazide and Their Evaluation for Antibacterial and Cytotoxic Potential” (Molecules, 2022).

≈ marks a conversion by molar mass, not a printed value.

Data set [1] is described as follows: Brine shrimp lethality bioassay. The data set is classed as in vivo, Artemia salina. As to conditions: Artemia salina (brine shrimp) nauplii, in vivo, other: exposure in sea water containing the compound, 24 h incubation, regression analysis, read-out: LC50 (median lethal concentration). As for the experimental part:
(§1) The cytotoxicities of synthesized hydrazones were recorded by employing an in vitro brine shrimp lethality bioassay technique. The eggs of Artemia salina (brine shrimp) were allowed to incubate at 30 °C for 48 h under a light and dark cycle using artificial sea water before subjecting them to the sample solutions. The hatched larvae (nauplii) were collected with using a Pasteur pipette and were transferred to freshly prepared sea water (commercial salt and double-distilled water). The stock solutions of each compound were prepared at 500 µg/mL concentration in DMSO and sea water at 1:1, and further serial dilutions of 25, 50, 100, 200 and 300 µg/mL were prepared using sea water. Using a 2mL volume from each dilution, sea water containing 10 nauplii was added to a test tube and incubated for 24 h. A solvent mixture with nauplii containing no test compound was used as the control. After due time, the number of nauplii that survived was determined using a magnifying glass. The experiment was performed in triplicate and the median lethal concentration (LC50) ± SEM was calculated using regression analysis.

A further data set has as its system S. aureus ATCC 25923. The data set is described as follows: Tetrazolium (MTT) microplate assay of minimum inhibitory concentration. The data set is classed as cell-based. To be noted: Staphylococcus aureus, ATCC25923. The method, then: (§2) All the synthesized compounds were screened for antibacterial activities using minimum inhibitory concentrations (MIC) and zone of inhibitions against Gram (+)and Gram (−) bacterial strains. ATCC strains of the test microorganism selected for antibacterial assay were Gram-positive bacteria; Staphylococcus aureus ATCC 25923, Bacillus subtilus ATCC 11774, and Gram-negative bacteria; Escherichia coli ATCC 10536. The bacterial strains’ stock cultures were kept in Nutrient agar (Oxoid, UK) at 4 °C and inocula were prepared by transferring several single colonies of microbes to a sterile Mueller Hinton broth. The bacterial cell suspension was mixed until homogeneity to give a final density of 5 × 10^5 cfu/mL
(§3) The minimum inhibitory concentrations of test microorganisms and reference material were determined using the tetrazolium microplate assay method. The assay was performed using a 96-well clear microtiter plate. Freshly harvested bacterial cell and fungal cell suspensions were seeded at 5 × 10^5 cfu/mL in each well of the 96-well plate. Different concentrations, 500 to 10 µg/mL, of the test compounds were diluted in series with Muller–Hinton broth. A volume of 200 µL of each concentration was added in triplicate to the wells and the plates were then incubated for 18–24 h at 37 °C ± 0.5. After incubation, in each well, 50 µL of 3-(4, 5-dimethylthiazol-2-yl)-2, 5-diphenyltetrazolium bromide MTT, having a concentration of 0.2 mg/mL, was added and the plate was incubated at 37 °C for 30 min. An appropriate solvent blank (DMSO) was included as the negative control and the bacterial suspension was included as the positive control. The absorbance was measured at 570 nm with a reference wavelength of 650 nm by adding DMSO using a spectrophotometer and the percentage reduction of the dye (indicating the bacterial growth inhibition) was calculated.

Another data set deals with B. subtilis ATCC 11774. The data set is described as above. The data set is classed as cell-based. As to conditions: Bacillus subtilis, ATCC11774. The method, then:
as §2, §3

The subject of the next data set is E. coli ATCC 10536. Described as above. To be noted: Escherichia coli, ATCC10536. The data set is classed as cell-based. The method, then: as §2, §3
The test system of data set [2] is Staphylococcus aureus ATCC 25923. The data set can be described thus: Paper disc diffusion, zone of inhibition. The data set is classed as cell-based. To be noted: Staphylococcus aureus, ATCC25923, 24 h, disc with 1000 µg mL−1 in DMSO, 37 °C. The method, then: as §2
(§4) Preliminary screenings of synthesized compounds were conducted on agar plates using the disc diffusion method. The plates were prepared using Mueller–Hinton agar following the autoclave process (121 °C for 30 min). After cooling, the plates were inoculated with the suspension of microorganisms (S. aureus, B. subtilis and E. coli). The paper discs impregnated with the test compounds (1000 µg mL^−1 in dimethyl sulfoxide) were placed on the solidified medium and incubated at 37 °C for 24 hours before recording the zone of inhibition in millimeters.

The test system of data set [3] is Escherichia coli ATCC 10536. The data set can be described thus: Paper disc diffusion, zone of inhibition. Type of data set: cell-based. To be noted: ATCC10536, disc with 1000 µg mL−1 in DMSO, 37 °C, 24 h. As for the experimental part:
as §2, §4

Data set [4] deals with Bacillus subtilis ATCC 11774. The data set can be described thus: Paper disc diffusion, zone of inhibition. As to conditions: disc with 1000 µg mL−1 in DMSO, 37 °C; for zone of inhibition at 1000 µg/mL: Bacillus subtilis, ATCC11774, 24 h. The data set is classed as cell-based. As for the experimental part: as §2, §4
Data set [5] has as its system Artemia salina (brine shrimp) nauplii. The data set is described as follows: Brine shrimp lethality bioassay. Type of data set: in vivo. To be noted: 24 h, concentration not given. As for the experimental part:
as §1

Take `COc1cc(/C=N/NC(=O)c2ccncc2)ccc1OCC=C(C)C` [NH3, (E)-N′-(3-Methoxy-4-((3-methylbut-2-en-1-yl)oxy)benzylidene)isonicotinohydrazide]: the LC50 at 24 h in data set [1] turned out to be 240 µg/mL (≈ 707 µM). The inhibition at 25 µg/mL in the data set with S. aureus ATCC 25923 (25 µg/mL) was found to be 24 ± 0.7%; in the data set with B. subtilis ATCC 11774 (25 µg/mL), 12 ± 0.4%. In addition, the inhibition at 50 µg/mL in the data set on S. aureus ATCC 25923 worked out at 35 ± 1.2%; with B. subtilis ATCC 11774, 20 ± 0.7%; in the data set with E. coli ATCC 10536, 36 ± 0.5%. Further, the inhibition at 100 µg/mL in the data set with S. aureus ATCC 25923 came out at 44 ± 2%; with B. subtilis ATCC 11774, 28 ± 0.8%; in the data set on E. coli ATCC 10536 it was 50 ± 0.5%. The inhibition at 200 µg/mL in the data set on S. aureus ATCC 25923 came to 60 ± 1.5%; with B. subtilis ATCC 11774, 53 ± 0.7%; in the data set with E. coli ATCC 10536 it was 65 ± 0.2%. The figures for the inhibition at 300 µg/mL with S. aureus ATCC 25923, with B. subtilis ATCC 11774 and in the data set with E. coli ATCC 10536 were 78 ± 1%, 74 ± 0.9% and 85 ± 1.2%, respectively. Besides, the inhibition at 400 µg/mL in the data set with S. aureus ATCC 25923 was determined as 89 ± 1.5%; in the data set on B. subtilis ATCC 11774 (400 µg/mL) it was 84 ± 0.9%. Besides, the results for the zone of inhibition at 1000 µg/mL in data set [2], in data set [3] and in data set [4] were 24 mm, 33 mm and 23 mm, respectively. Also, in data set [4] (24 h), the “Zone of Inhibition” value amounted to 22 mm.
Consider `CCCOc1ccc(/C=N/NC(=O)c2ccncc2)cc1` [NH6, (E)-N′-(4-Propoxybenzylidene) Isonicotinohydrazide], for which, in data set [1], the LC50 at 24 h was 162 µg/mL (≈ 574 µM). This compound also had a minimum survival percentage in data set [5] of 32.44 ± 2.0%. In the data set on S. aureus ATCC 25923, this compound had an inhibition at 50 µg/mL of 5.5 ± 0.5%, an inhibition at 100 µg/mL of 25 ± 0.5%, an inhibition at 200 µg/mL of 52 ± 1.6% and an inhibition at 300 µg/mL of 72 ± 1.2%. In addition, in the data set on S. aureus ATCC 25923, the inhibition at 400 µg/mL turned out to be 80 ± 1%. Also, in the data set on B. subtilis ATCC 11774, the inhibition at 50 µg/mL stood at 10 ± 0.6%, at 100 µg/mL the inhibition was 23 ± 0.7%, the inhibition at 200 µg/mL came out at 52 ± 0.8% and at 300 µg/mL the inhibition was 70 ± 1.1%. The inhibition at 25 µg/mL with E. coli ATCC 10536 (25 µg/mL) amounted to 5 ± 0.2%. Further, in the data set with E. coli ATCC 10536, at 50 µg/mL the inhibition was 14 ± 0.5%, the inhibition at 100 µg/mL was 28 ± 0.5%, the inhibition at 200 µg/mL worked out at 50 ± 0.7% and the inhibition at 300 µg/mL was determined as 73 ± 0.7%. The same compound returned a zone of inhibition at 1000 µg/mL in data set [2] of 17 mm. For the same compound, the zone of inhibition at 1000 µg/mL in data set [3] worked out at 22 mm. In data set [4], this compound displayed a zone of inhibition at 1000 µg/mL of 23 mm.
